Experimental data: patent US9580713B2 (priority 2011, dated 2017)
Where “and” joins values, the source holds several entries; their conditions need not be identical. Equal entries are not always repeated. Entries after “also recorded” stand apart in the source; their conditions may differ. Where two headings read alike, the source gives them in different places.

Columns and labels:
[1] = system: 78 Psy crcB motif RNA (fluoride riboswitch aptamer); type: binding, Pseudomonas syringae
[2] = system: WT E. coli cells
Protocol: For each bacterial strain, an overnight culture was set up of the desired bacteria the previous day. The majority of the growth curves were conducted in 350 μL LB medium that initially was not supplemented with salt. […] The desired concentration of NaF or NaCl was subsequently added as designated for each culture after a 1:100 dilution of an overnight culture. Wells with NaF concentrations below 1 mM were supplemented with 1 mM NaCl. Each condition was set up in duplicate or triplicate. Every fifteen minutes the 100-well plate was shaken at medium intensity for 10 seconds and the OD600 was automatically measured for a period of 16 hours. The data was analyzed using Microsoft Excel.

[3] = system: eriC^F-rescued E. coli crcB KO cells
Protocol: The eriC^F gene from P. syringae DC3000 was amplified from genomic DNA by PCR and cloned into the pCR2.1 TA vector (Invitrogen). The cloned fragment contained the full length eriC^F ORF, the 5′ UTR features described above, and the native promoter to drive expression.
(§1) Growth curves to compare pH conditions used 350 μL of LB (neutral pH) or LBK medium (pH 5.5), 3.5 μL of an overnight culture, and 3.5 μL, of a 10× sodium fluoride or sodium chloride solution. Growth curves with empty or eriC^F-containing plasmid included 100 μg mL^−1 carbenicillin added to the growth medium (2XLB), which was subsequently diluted two-fold to a final concentration of 50 μg mL^−1.

[4] = system: crcB KO strain of E. coli; assay: microbe, parasite or virus in culture
Protocol: (§2) Cell growth of WT and crcB KO E. coli strains were measured overnight using a Bioscreen C instrument (Oy Growth Curves Ab Ltd, Finland). The amount of fluoride added to the media was varied to measure the effect on growth at several pH values. Reporter constructs with B. cereus or P. syringae riboswitch sequences fused to the lacZ gene were cloned into the vectors pDG1661 or pRS414, respectively. The two vectors were transformed into B. subtilis or E. coli, and gene expression was examined by addition of X-gal into grown cultures or quantified with Miller assays.
as §1
(§3) E. coli strains BW25113 and its crcB KO derivative strain harboring the eriC^F riboswitch reporter construct were streaked on modified LB plates with carbenicillin (100 μg mL^−1) and X-gal (800 μg ml^−1). Plates included 0, 0.2 or 50 mM NaF.

[5] = system: riboswitch associated with B. cereus crcB fused to lacZ; conditions: increasing amounts of fluoride, X-gal and Miller assays with ONPG
Protocol: as §2

[6] = molecular target: crcB motif RNA; conditions: read-out: KD for fluoride binding; in-line probing
Protocol: (§4) Briefly, in vitro transcribed RNA were 5′ ^32P-radiolabeled and trace amounts (˜1 nM) were incubated at room temperature for 48 hours (unless otherwise indicated) in the presence of 100 mM KCl, 50 mM Tris-HCl (pH 8.3 at 23° C.), and 20 mM MgCl2. Cleavage products were separated by using denaturing 10% PAGE and imaged with a PhosphorImager (Molecular Dynamics). ImageQuant 5.1 was used to establish band intensities. Exceptions to the typical in-line probing methods are detailed in the following sections.

[7] = molecular target: crcB motif RNA; conditions: read-out: KD for fluoride binding; in-line probing; remark: listed apart in the source
Protocol: as §4

[8] = system: fluoride riboswitch from the P. syringae eriC gene fused to lacZ
Protocol: as §2
The 5′ UTR of COG0038 (eriC^F homolog) was amplified from P. syringae DC3000 genomic DNA as an EcoRI-BamHI fragment and cloned into the translational reporter vector pRS414. […] Specifically, the region encompassing nucleotides −248 to +24 with respect to the beginning of the eriC^F ORF was cloned as a translational fusion in pRS414, wherein the 8th codon of the ORF was fused in frame to the 9th codon of lacZ reporter gene. Mutations in the regulatory region were generated by a three-step PCR approach using methods described previously (A. Nahvi, et al., Chem. Biol. 9, 1043 (2002)).
as §3

[9] = system: E. coli cells lacking the gene to express the fluoride transporter protein CrcB; assay: Fluoride riboswitch beta-galactosidase reporter (4-MUG) in E. coli lacking CrcB with imipramine; type: cell-based; conditions: same construct in cells lacking CrcB, compared with cells having CrcB
Excerpt: (§5) A fluoride riboswitch fused to a beta-galactosidase reporter gene is present in E. coli cells and cells are exposed to concentrations of sodium fluoride and imipramine (x-axis) as noted. The structure of imipramine is shown below.

[10] = molecular target: T1, fluoride transporter protein CrcB (Escherichia coli, UniProt P37002); assay: Fluoride riboswitch beta-galactosidase reporter (4-MUG) in E. coli with imipramine; type: cell-based
T1 construct: this bacterial species does code for a CrcB protein; endogenous in cells; host or cells: E. coli
T1 sequence (P37002 whole entry): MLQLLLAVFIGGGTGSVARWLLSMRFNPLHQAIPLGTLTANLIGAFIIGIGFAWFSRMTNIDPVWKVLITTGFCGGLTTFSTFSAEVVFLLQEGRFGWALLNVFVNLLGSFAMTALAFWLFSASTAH
Excerpt: as §5

[11] = ligands at 10 mM or as in footnotes of Tables 1 and 2 (CO ~0.9 mM, NO 1 mM)

With `[Ca+2].[Cl-].[Cl-]` [Ca^2+, calcium chloride] the “effect on fluoride-dependent RNA structural modulation” value [1] was “diminishes RNA structural modulation; also recorded: complete loss of modulation”.

With `[F-].[Na+]` [NaF, sodium fluoride] the “conformational changes of 78 Psy crcB motif RNA” value [1] was “trigger identical conformational changes”, the “concentration at which growth becomes noticeably reduced” value ([2]; liquid media) was 30 mM and the “minimum inhibitory concentration (MIC)” value ([2]; liquid media, 16 hr growth curves) was about 200 mM.

`CCCC[N+](CCCC)(CCCC)CCCC.[F-]` [TBAF, Tetra-n-butylammonium fluoride] was tested, and the “conformational changes of 78 Psy crcB motif RNA” value [1] was “trigger identical conformational changes”.

With `Br` [bromide] the “binding / structure modulation by other ligands” value (from here on “binding / structure modulation”) [1] was “rejects”.

With `[C-]#[O+]` [carbon monoxide] the “binding / structure modulation” value [1, 11] was “rejected”.

With `Cl` [chloride] the “78 Psy aptamer structure on exposure to chloride” value [1] was “remains unchanged” and the “binding / structure modulation” value [1] was “rejects”.

For `F` [fluoride], the “selectivity of aptamer binding, fluoride versus chloride” value [1] was “at least 40,000 fold”, the Kd ([1]; read-out: apparent dissociation constant (KD)) was ~60 µM and 60 µM and the growth inhibition ([3]; 1 mM fluoride) was “almost no growth inhibition”. The “fluoride concentration in culture medium required to cause growth inhibition and reporter expression” value ([3]; eriC^F-rescued cells) was about 10 mM, the growth ([4]; 50 mM fluoride) was “fails to grow” and the MIC ([4]; Escherichia coli, 16 h, read-out: minimum inhibitory concentration (MIC)) was over 1 mM. The growth ([2]; 50 mM fluoride) was “robust growth”, the β-galactosidase reporter activity [5] was “induced high levels of expression” and the Kd [6] was about 50 µM. For the same compound, the Kd [7] was about 50 µM, the “fluoride concentration in growth medium yielding maximal reporter gene signal” value ([8]; crcB K.O. strain) was 1 mM and the β-galactosidase expression ([8]; solid medium supplemented with 50 mM fluoride) was “readily apparent”.

In the case of `O` [hydroxide ions, hydroxide], the “RNA conformational changes with hydroxide” value ([1]; pH 9.7) is reported as “do not trigger RNA conformational changes”.

In the case of `CN(C)CCCN1c2ccccc2CCc2ccccc21` [imipramine, 3-(10,11-dihydro-5H-dibenzo[b,f]azepin-5-yl)-N,N-dimethylpropan-1-amine], the “level of reporter gene expression with imipramine” value [9] is reported as “substantially reduced”, the “reporter gene expression (fluorescence, 4-MUG)” value ([10]; 330 μM imipramine, with sodium fluoride) is reported as “increased expression of the reporter gene” and the “action on fluoride transporter CrcB” value ([10]; concluded from reporter results with and without CrcB) is reported as “blocks this fluoride transporter”.

In the case of `I` [iodide], the “binding / structure modulation” value [1, 11] is reported as “rejects”.

With `[N]=O` [nitric oxide] the “binding / structure modulation” value [1, 11] was “rejected”.

For `F.[F-].[K+]` [potassium bifluoride], the “conformational changes of 78 Psy crcB motif RNA” value [1] was “trigger identical conformational changes”.
